{"source": "patent US10154961B2", "about": "“Pomegranate oil for preventing and treating neurodegenerative diseases” (Hadasit Medical Research Services and Development Ltd., priority 2012, dated 2018)", "tested_on": "fibroblast isolated from TgMHu2ME199K mice", "format": "cell-based"}
{"smiles": "CCCC\\C=C/C=C/C=C\\CCCCCCCC(=O)O", "note": "[punicic acid]", "values": [{"measurement": "effect on copper toxicity, percentage of cell survival", "value": "significantly inhibited the toxic effect of cooper"}]}
